# Legend:
# [1] = system: PQQ-dependent soluble glycerol dehydrogenase from Pseudomonas sp. TE3493 (FERM BP-4169); assay: Km determination of purified glycerol dehydrogenase (ferricyanide activity assay); assay type: biochemical; settings: purified enzyme of Example 1
# Procedure: (§1) Hereunder is explained a method for the determination of the activity of the novel glycerol dehydrogenase according to the present invention. To the reaction solution are added 0.7 ml of a 50 mM Tris--HCl buffer solution, 0.1 ml of a 0.1 M glycerol and the enzyme solution to a total volume of 0.9 ml. The mixture was preheated at 25° C. for 5 minutes, and 0.1 ml of a 0.1 M potassium ferricyanide was added thereto for the initiation of the reaction. The reaction is terminated by addition of 0.5 ml of ferric sulfate/Dupanol reagent thereto, after which 3.5 ml of distilled water is added thereto to a total volume of 5 ml. Then the mixture was allowed to stand at 25° C. for 30 minutes, followed by measurement of absorbance at 660 nm. A blank test is carried out in the same manner as the above-mentioned one, but adding distilled water instead of the enzyme solution. The activity of glycerol dehydrogenase is expressed with one unit (U) being defined as the enzyme activity which oxidizes 1 μmole of glycerol in 1 minute under the conditions specified above.
# In a 500 ml Sakaguchi flask there were placed 100 ml of a culture medium which contained 0.5% glycerol, 0.2% NaNO3, 0.2% (NH4)2 SO4, 1% K2 HPO4, 1% KH2 PO4, 0.02% MgSO4.7H2 O and 0.05% yeast extracts, followed by autoclaving at 121° C. for 15 minutes. One loopful of cells of Pseudomonas sp. […]
# [2] = system: PQQ-dependent membrane-bound glycerol dehydrogenase from Gluconobacter industrius IFO 3260; assay: Km determination of comparison glycerol dehydrogenase (membrane-bound); assay type: biochemical; settings: enzyme preparation of Comparison 1, solubilized with dimethyldodecylamine oxide
# Procedure: as §1
# Gluconobacter industrious IFO3260 was cultivated in the same manner as in Example 1. The culture solution was centrifuged to harvest the cells which were then subjected to a conventional manner to yield a membrane fraction. […]
smiles,measurement,setting,value
OCC(O)CO [glycerol],Km,[1],2.45 mM
same,Km,[2],34 mM

# From patent US5614374A, “Glycerol dehydrogenase, process for its production and its use” (Toyo Boseki Kabushiki Kaisha, priority 1992, dated 1997)
